Experimental data as given in patent US7262212B2, “2,3-dihydro-6-nitroimidazo[2,1-b]oxazoles” (Otsuka Pharmaceutical Co., Ltd., priority 2002, dated 2007).

First: C[C@]1(COc2ccc(C3=CCN(C(=O)OCc4ccc(OC(F)(F)F)cc4)CC3)cc2)Cn2cc([N+](=O)[O-])nc2O1
Second: C[C@]1(COc2ccc(C3=CCN(Cc4ccc(OC(F)(F)F)cc4)CC3)cc2)Cn2cc([N+](=O)[O-])nc2O1
The melting point of the first is higher: 174.3 to 174.8 °C for the first, 168 to 174 °C for the second.

First: COc1ccc(NC(=O)N2CCN(C[C@@]3(C)Cn4cc([N+](=O)[O-])nc4O3)CC2)cc1
Second: CC1(CN2CCN(C(=O)Nc3ccc(Cl)c(C(F)(F)F)c3)CC2)Cn2cc([N+](=O)[O-])nc2O1 (stereo not drawn)
The melting point of the first is lower: 185.5 to 187.5 °C for the first, 222 to 224 °C for the second.

First: CC1(CN2CCN(C(=O)Oc3ccccc3)CC2)Cn2cc([N+](=O)[O-])nc2O1 (stereo not drawn)
Second: C[C@@]1(CN2CCN(C(=O)OCc3ccc(F)cc3)CC2)Cn2cc([N+](=O)[O-])nc2O1
The melting point of the first is lower: 81 to 85 °C for the first, 167 to 169 °C for the second.

First: CNC(C1CCN(C(=O)OCc2ccc(OC(F)(F)F)cc2)CC1)[C@]1(C)Cn2cc([N+](=O)[O-])nc2O1 (stereo partly drawn)
Second: C[C@]1(CN2CCN(C(=O)OCc3ccc(OC(F)(F)F)cc3)CC2)Cn2cc([N+](=O)[O-])nc2O1
The melting point of the first is lower: 84.2 to 86.8 °C for the first, 139.5 to 140.5 °C for the second.

Compared with `CC1(Cn2nc(CCc3ccc(Cl)cc3)oc2=O)Cn2cc([N+](=O)[O-])nc2O1` (stereo not drawn), `CC1(Cn2nc(C=Cc3ccc(Cl)cc3)oc2=O)Cn2cc([N+](=O)[O-])nc2O1` (stereo not drawn) is higher in melting point: 139 to 140 °C for the first, 249 to 252 °C for the second.

First: CC1(CN2CCN(C(=O)Cc3ccc(Cl)c(Cl)c3)CC2)Cn2cc([N+](=O)[O-])nc2O1 (stereo not drawn)
Second: C[C@]1(CN2CCN(C(=O)CCCc3ccc(Cl)cc3)CC2)Cn2cc([N+](=O)[O-])nc2O1
The melting point of the first is higher: 189 to 191 °C for the first, 146 to 147 °C for the second.

First: C[C@]1(CN2CCC(OCCc3ccc(C(F)(F)F)cc3)CC2)Cn2cc([N+](=O)[O-])nc2O1
Second: CC1(CN2CCC(C(=O)c3ccc(C(F)(F)F)cc3)CC2)Cn2cc([N+](=O)[O-])nc2O1 (stereo not drawn)
The melting point of the first is lower: 84.6 to 86.8 °C for the first, 172 to 174 °C for the second.

`C[C@]1(CN2CCN(N=Cc3ccc(C(F)(F)F)cc3)CC2)Cn2cc([N+](=O)[O-])nc2O1` [Example 505] and `CC1(CN2CCN(N=Cc3ccc(OC(F)(F)F)cc3)CC2)Cn2cc([N+](=O)[O-])nc2O1` (stereo not drawn) cannot be ordered by melting point: 188.4 to 191.2 °C for the first, 189.2 to 190.9 °C for the second.

First: C[C@]1(CN2CCC(c3ccccc3)CC2)Cn2cc([N+](=O)[O-])nc2O1
Second: CC1(CN2CCC(C(=O)c3ccc(Cl)cc3)CC2)Cn2cc([N+](=O)[O-])nc2O1 (stereo not drawn)
The melting point of the first is lower: 158.8 to 163.9 °C for the first, 165 to 167 °C for the second.

First: CCOC(=O)c1ccccc1NCC1(C)Cn2cc([N+](=O)[O-])nc2O1 (stereo not drawn)
Second: CC1(CNC(=O)OCc2ccc(F)cc2)Cn2cc([N+](=O)[O-])nc2O1 (stereo not drawn)
The melting point of the first is lower: 162.5 to 163.2 °C for the first, 200.4 to 202.1 °C for the second.

Compared with `C[C@]1(COC(=O)N2CCN(N=Cc3ccc(C(F)(F)F)cc3)CC2)Cn2cc([N+](=O)[O-])nc2O1`, `C[C@]1(CN2CCN(C(=O)OCC=Cc3ccc(OC(F)(F)F)cc3)CC2)Cn2cc([N+](=O)[O-])nc2O1` is lower in melting point: 176 to 178 °C for the first, 91 to 93 °C for the second.

First: C[C@]1(CN2CCN(C3CCN(c4ccc(OC(F)(F)F)cc4)CC3)CC2)Cn2cc([N+](=O)[O-])nc2O1
Second: C[C@]1(CN2CCC(N3CCC(Oc4ccc(OC(F)(F)F)cc4)CC3)CC2)Cn2cc([N+](=O)[O-])nc2O1
The melting point of the first is higher: 180 to 181.5 °C for the first, 131 to 132 °C for the second.

First: O=[N+]([O-])c1cn2c(n1)O[C@@H](CN1CCN(c3ccc(F)cc3)CC1)C2
Second: O=[N+]([O-])c1cn2c(n1)O[C@H](CN1CCN(Cc3ccc(C(F)(F)F)cc3)CC1)C2
The melting point of the first is higher: 178.5 to 179.5 °C for the first, 141 to 143 °C for the second.

Compared with `CC1(COC(=O)Nc2ccc(Cl)cc2)Cn2cc([N+](=O)[O-])nc2O1` (stereo not drawn), `C[C@]1(COC(=O)N(c2ccc(Cl)cc2)c2ccc(Cl)cc2)Cn2cc([N+](=O)[O-])nc2O1` is higher in melting point: 179 to 181 °C for the first, 200 to 201 °C for the second.

First: CC(C)(C)OC(=O)N1CCC2(CC1)Cn1cc([N+](=O)[O-])nc1O2
Second: CN(CCN1CCN(C(=O)OC(C)(C)C)CC1)C[C@@]1(C)Cn2cc([N+](=O)[O-])nc2O1
The melting point of the first is higher: 230 to 232 °C for the first, 149.5 to 151.8 °C for the second.

First: CC1(CN2CCN(Cc3ccc(F)cc3)C2=O)Cn2cc([N+](=O)[O-])nc2O1 (stereo not drawn)
Second: CC1(Cn2nc(-c3ccc(F)cc3)oc2=O)Cn2cc([N+](=O)[O-])nc2O1 (stereo not drawn)
The melting point of the first is lower: 182.5 to 183.3 °C for the first, 188 to 191 °C for the second.

First: CC1(COC(=O)N2CCCCC2)Cn2cc([N+](=O)[O-])nc2O1 (stereo not drawn)
Second: CC(C)COC(=O)N1CCN(CC2(C)Cn3cc([N+](=O)[O-])nc3O2)CC1 (stereo not drawn)
The melting point of the first is lower: 152 to 154 °C for the first, 176.5 to 177.3 °C for the second.

First: O=C(OCc1ccc(C(F)(F)F)cc1)N1CCN(C[C@H]2Cn3cc([N+](=O)[O-])nc3O2)CC1
Second: O=[N+]([O-])c1cn2c(n1)O[C@@H](CN1CCN(Cc3ccc(C(F)(F)F)cc3)CC1)C2
The melting point of the first is lower: 125 to 125.5 °C for the first, 149 to 150 °C for the second.

First: CC1(CCn2nc(-c3cnccn3)oc2=O)Cn2cc([N+](=O)[O-])nc2O1 (stereo not drawn)
Second: CC1(CCc2nnnn2-c2ccccc2)Cn2cc([N+](=O)[O-])nc2O1 (stereo not drawn)
The melting point of the first is higher: 209 to 212 °C for the first, 158 to 159 °C for the second.

First: C[C@]1(COc2ccc(N3CCN(C(=O)OCc4cc5cc(Cl)ccc5o4)CC3)cc2)Cn2cc([N+](=O)[O-])nc2O1
Second: C[C@]1(COc2ccc(N3CCN(Cc4ccc(C(F)(F)F)cc4)CC3)cc2)Cn2cc([N+](=O)[O-])nc2O1
The melting point of the first is lower: 195 to 197 °C for the first, 205.5 to 207 °C for the second.

Compared with `C[C@]1(CN2CCN(C(=O)CCCCc3ccc(Cl)cc3)CC2)Cn2cc([N+](=O)[O-])nc2O1`, `C[C@]1(CN2CCN(C(=O)CSc3ccc(Cl)cc3)CC2)Cn2cc([N+](=O)[O-])nc2O1` is higher in melting point: 108 to 111 °C for the first, 142 to 145 °C for the second.

Compared with `CC(C)OC(=O)N1CCN(CC2(C)Cn3cc([N+](=O)[O-])nc3O2)CC1` (stereo not drawn), `C[C@]1(CN2CCN(C(=O)OCC(F)(F)F)CC2)Cn2cc([N+](=O)[O-])nc2O1` is lower in melting point: 158.3 to 159.8 °C for the first, 123.5 to 124 °C for the second.

Compared with `CN(CCCOc1ccc(OC(F)(F)F)cc1)C[C@@]1(C)Cn2cc([N+](=O)[O-])nc2O1`, `C[C@]1(CN(CCOc2ccc(OC(F)(F)F)cc2)Cc2ccccc2)Cn2cc([N+](=O)[O-])nc2O1` is higher in melting point: 92 to 95 °C for the first, 96.5 to 97 °C for the second.

First: C[C@]1(COc2ccc(-n3cncn3)cc2)Cn2cc([N+](=O)[O-])nc2O1
Second: C[C@]1(COc2ccc(N3CC[S+]([O-])CC3)cc2)Cn2cc([N+](=O)[O-])nc2O1
The melting point of the first is higher: 236 to 238.7 °C for the first, 198 to 200 °C for the second.

First: Cn1c(=O)n(CC2(C)Cn3cc([N+](=O)[O-])nc3O2)c2cc(C(F)(F)F)ccc21 (stereo not drawn)
Second: Cn1c(=O)n(CC2(C)Cn3cc([N+](=O)[O-])nc3O2)c2ccccc21 (stereo not drawn)
The melting point of the first is higher: 232.4 to 234.7 °C for the first, 203.2 to 204.4 °C for the second.

Compared with `C[C@]1(CN2CCN(c3nc(-c4ccccc4)cc(-c4ccccc4)n3)CC2)Cn2cc([N+](=O)[O-])nc2O1`, `C[C@]1(CN2CCN(Cc3ccc(-c4ccccc4)cc3)CC2)Cn2cc([N+](=O)[O-])nc2O1` is lower in melting point: 201.2 to 205.4 °C for the first, 182 to 184 °C for the second.

First: CC1(CN2CCN(S(=O)(=O)Cc3ccc(Cl)cc3)CC2)Cn2cc([N+](=O)[O-])nc2O1 (stereo not drawn)
Second: CC1(CN2CCN(c3ccc(Cl)cc3)CC2)Cn2cc([N+](=O)[O-])nc2O1 (stereo not drawn)
The melting point of the first is higher: 215 to 217 °C for the first, 196.6 to 197.3 °C for the second.

First: O=[N+]([O-])c1cn2c(n1)OC1(CCN(c3ccc(Cl)cc3)CC1)C2
Second: C[C@]1(CN2CCN(c3ccc(Cl)cc3)CC2)Cn2cc([N+](=O)[O-])nc2O1
The melting point of the first is higher: 242 to 245 °C for the first, 218 to 219.6 °C for the second.

First: C[C@]1(COc2ccc(N3CCN(c4ccc(OC(F)(F)F)cc4)CC3)cc2)Cn2cc([N+](=O)[O-])nc2O1
Second: C[C@]1(COc2ccc(C(=O)N3CCN(Cc4ccc(OC(F)(F)F)cc4)CC3)cc2)Cn2cc([N+](=O)[O-])nc2O1
The melting point of the first is higher: 262.5 to 265 °C for the first, 155 to 156 °C for the second.

First: CC1(c2cccnc2)Cn2cc([N+](=O)[O-])nc2O1 (stereo not drawn)
Second: CC1(COc2nc3ccccc3o2)Cn2cc([N+](=O)[O-])nc2O1 (stereo not drawn)
The melting point of the first is higher: 212 to 214 °C for the first, 200 to 203 °C for the second.

Compared with `CC(C)(C)OC(=O)N1CCN(C2CCN(C[C@@]3(C)Cn4cc([N+](=O)[O-])nc4O3)CC2)CC1`, `C[C@]1(CN2CCC(N3CCN(C(=O)c4ccc(Cl)cc4)CC3)CC2)Cn2cc([N+](=O)[O-])nc2O1` is lower in melting point: 184 to 185 °C for the first, 174 to 175 °C for the second.

First: CCN(CC)C(=O)OC[C@@]1(C)Cn2cc([N+](=O)[O-])nc2O1
Second: CC1(CNC(=O)OCc2ccc(OC(F)(F)F)cc2)Cn2cc([N+](=O)[O-])nc2O1 (stereo not drawn)
The melting point of the first is higher: 196 to 197 °C for the first, 182.3 to 184.4 °C for the second.

First: C[S+]([O-])c1ccc(COC(=O)N2CCN(CC3(C)Cn4cc([N+](=O)[O-])nc4O3)CC2)cc1 (stereo not drawn)
Second: C[C@]1(CN2CCN(C3CCN(Cc4ccc(Cl)cc4)CC3)CC2)Cn2cc([N+](=O)[O-])nc2O1
The melting point of the first is lower: 117 to 121 °C for the first, 168 to 169 °C for the second.

First: O=C(Nc1ccc(C(F)(F)F)cc1)N1CCC2(CC1)Cn1cc([N+](=O)[O-])nc1O2
Second: C[C@]1(CN2CCC(NC(=O)OC3CCN(c4ccc(C(F)(F)F)cc4)CC3)CC2)Cn2cc([N+](=O)[O-])nc2O1
The melting point of the first is higher: 215 to 217 °C for the first, 134.4 to 136.9 °C for the second.

First: C[C@]1(CN2CCC3(CC2)OCCO3)Cn2cc([N+](=O)[O-])nc2O1
Second: O=c1oc(-c2ccc(OC(F)(F)F)cc2)nn1CC1Cn2cc([N+](=O)[O-])nc2O1 (stereo not drawn)
The melting point of the first is lower: 166.5 to 168.2 °C for the first, 204 to 207 °C for the second.

In the case of `O=C(N1CCN(Cc2ccc(C(F)(F)F)cc2)CC1)N1CCC2(CC1)Cn1cc([N+](=O)[O-])nc1O2`, the melting point was 226 to 230 °C (dec.).
In the case of `O=C(Nc1ccc(N2CCOCC2)c(F)c1)N1CCC2(CC1)Cn1cc([N+](=O)[O-])nc1O2`, the melting point was 240 to 245 °C (dec.).
In the case of `CC1(CN2CCN(C(=O)Nc3ccc(Cl)cc3)CC2)Cn2cc([N+](=O)[O-])nc2O1` (stereo not drawn), the melting point was 185 to 188 °C (dec.).
With `CN1CCC2(CC1)Cn1cc([N+](=O)[O-])nc1O2` the melting point was 237 to 239 °C (dec.).
In the case of `C[C@]1(CN2CCN(C(=O)Nc3ccc(Cl)cc3)CC2)Cn2cc([N+](=O)[O-])nc2O1`, the melting point was 156 to 159 °C (dec.).
With `COc1ccc(NC(=S)N2CCN(CC3(C)Cn4cc([N+](=O)[O-])nc4O3)CC2)cc1` (stereo not drawn) the melting point was 189 to 191 °C (dec.).
For `CC1(CN2CCN(C(=O)OCC#Cc3ccc(C(F)(F)F)cc3)CC2)Cn2cc([N+](=O)[O-])nc2O1.O=C(O)/C=C\C(=O)O` (stereo not drawn), the melting point was 166 °C (dec.).
With `CN(C)c1ccc(NC(=O)N2CCC3(CC2)Cn2cc([N+](=O)[O-])nc2O3)cc1` the melting point was 244 to 247 °C (dec.).
